We go through 35 compounds from patent US12540129B2, “KIF18A inhibitors” (AMGEN INC., priority 2019, dated 2026).

Structures are written as SMILES.

This assay deals with T1, Recombinant human KIF18A (1-467 His-tagged) protein (Homo sapiens, UniProt Q8NI77).
T1 construct: Recombinant human KIF18A (1-467 His-tagged) protein; His; made in house
T1 sequence (Q8NI77 1-467): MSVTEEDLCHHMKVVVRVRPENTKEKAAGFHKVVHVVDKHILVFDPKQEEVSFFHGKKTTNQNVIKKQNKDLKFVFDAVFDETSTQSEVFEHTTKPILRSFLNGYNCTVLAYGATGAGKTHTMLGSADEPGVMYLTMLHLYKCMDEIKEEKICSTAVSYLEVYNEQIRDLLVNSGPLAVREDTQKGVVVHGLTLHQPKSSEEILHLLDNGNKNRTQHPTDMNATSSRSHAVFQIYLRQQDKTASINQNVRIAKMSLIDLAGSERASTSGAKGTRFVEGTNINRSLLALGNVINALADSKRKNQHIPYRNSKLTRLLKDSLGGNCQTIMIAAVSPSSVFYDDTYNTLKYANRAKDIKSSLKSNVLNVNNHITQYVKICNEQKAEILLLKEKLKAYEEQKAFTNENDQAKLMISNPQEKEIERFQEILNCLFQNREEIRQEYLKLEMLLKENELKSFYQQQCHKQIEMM
T1 sequence (P02550 whole entry partner): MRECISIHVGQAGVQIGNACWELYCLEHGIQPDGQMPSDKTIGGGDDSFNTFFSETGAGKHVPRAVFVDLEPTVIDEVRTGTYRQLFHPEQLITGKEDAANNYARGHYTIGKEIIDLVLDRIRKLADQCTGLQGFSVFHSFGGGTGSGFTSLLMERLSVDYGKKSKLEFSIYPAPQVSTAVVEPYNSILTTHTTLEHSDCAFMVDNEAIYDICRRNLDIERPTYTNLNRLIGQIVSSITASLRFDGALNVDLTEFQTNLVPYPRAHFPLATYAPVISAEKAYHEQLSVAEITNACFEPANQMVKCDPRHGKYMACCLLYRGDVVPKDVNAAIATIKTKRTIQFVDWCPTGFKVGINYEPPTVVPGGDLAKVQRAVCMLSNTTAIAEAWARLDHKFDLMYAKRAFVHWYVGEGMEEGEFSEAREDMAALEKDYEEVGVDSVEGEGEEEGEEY
T1 sequence (P02554 whole entry partner): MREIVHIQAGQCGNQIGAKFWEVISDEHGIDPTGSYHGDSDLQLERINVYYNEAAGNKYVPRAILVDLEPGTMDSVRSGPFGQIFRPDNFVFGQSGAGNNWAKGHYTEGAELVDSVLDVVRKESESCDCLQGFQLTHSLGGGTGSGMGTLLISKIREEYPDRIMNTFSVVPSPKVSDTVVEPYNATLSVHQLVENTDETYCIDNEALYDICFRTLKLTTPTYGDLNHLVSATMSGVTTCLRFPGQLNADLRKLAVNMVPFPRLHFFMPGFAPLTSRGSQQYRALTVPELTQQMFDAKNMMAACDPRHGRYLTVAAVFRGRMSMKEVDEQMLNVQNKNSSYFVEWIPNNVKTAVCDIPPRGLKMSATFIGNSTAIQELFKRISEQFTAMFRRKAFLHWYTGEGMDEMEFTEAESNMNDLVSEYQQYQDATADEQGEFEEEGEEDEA
Kind of assay: KIF18A Enzyme Assay: microtubule-stimulated ATPase activity (ADP-Glo). The format is biochemical. The conditions noted are these: 30 nM KIF18A, 75 μM ATP. The text has this:
KIF18A Enzyme Assay: Microtubule-stimulated ATPase activity assay is used to measure KIF18A enzyme activity after treatment with compound. Compounds were 2-fold serially diluted in DMSO (Sigma Inc) over 22-point concentration range. Recombinant human KIF18A (1-467 His-tagged) protein was expressed using a baculovirus system and purified by affinity chromatography by Amgen Inc. Concentrations of KIF18A protein, microtubules (MT), and ATP in the reaction were optimized for standardized homogenous enzyme assay using ADP-Glorm Kinase/ATPase Assay Kit (Promega Inc). The assay measures ADP formed from the ATPase reaction. […] Read luminescence using EnVision microplate reader with ultra-luminescence module (Perkin Elmer Inc). Concentration-response curve-fitting and IC50 determination was performed using Genedata Screener Software (Standard 15.0.1, Genedata Inc) with a four-parameter logistic regression fit model.
Table A provides data for compounds exemplified in the present application and priority document thereof, as representative compounds of the present invention, as follows: chemical name (as named by either ACD software or ChemDraw (Professional 15.0)) and biological data (IC50 in μM). Ex. # refers to Example No.
A general note: ADP-Glo turns the ADP formed in a reaction into a luminescent signal.
Turning to `CC(C)(C)NS(=O)(=O)c1cccc(NC(=O)c2ccc([C@](C)(O)C(F)(F)F)nc2N2CCC3(CC2)CC3)c1` (single isomer, unassigned) [Example 107-1], the IC50 (in general, the midpoint of a concentration-inhibition curve) stood at 70 nM.
With `CC(C)(C)NS(=O)(=O)c1cccc(NC(=O)c2ccc([C@@](C)(O)C(F)(F)F)nc2N2CCC3(CC2)CC3)c1` (single isomer, unassigned) [Example 107-2] the figure was 97 nM; with `CC(C)(C)NS(=O)(=O)c1cccc(NC(=O)c2ccc([C@](C)(O)CO)nc2N2CCC3(CC2)CC3)c1` (single isomer, unassigned) [Example 109-1], 87 nM; with `CC(C)(C)NS(=O)(=O)c1cccc(NC(=O)c2ccc([C@@](C)(O)CO)nc2N2CCC3(CC2)CC3)c1` (single isomer, unassigned) [Example 109-2], 65 nM.
In the case of `CC1(C)CCN(c2ncccc2C(=O)Nc2cccc(S(=O)(=O)N3CCCCC3)c2)CC1` [Example 100, 2-(4,4-Dimethylpiperidin-1-yl)-N-(3-(piperidin-1-ylsulfonyl)phenyl)nicotinamide] it was 553 nM; in that of `O=C(Nc1cccc(S(=O)(=O)N2CCCCC2)c1)c1cccnc1N1CCC2(CC1)CC2` [Example 100-1, N-(3-(piperidin-1-ylsulfonyl)phenyl)-2-(6-azaspiro[2.5]octan-6-yl)nicotinamide], 342 nM; in that of `CCC1CCN(c2ncccc2C(=O)Nc2cccc(S(=O)(=O)N3CCCCC3)c2)CC1` [Example 100-2, 2-(4-ethylpiperidin-1-yl)-N-(3-(piperidin-1-ylsulfonyl)phenyl)nicotinamide], 983 nM.
As to `CCCC1CCN(c2ncccc2C(=O)Nc2cccc(S(=O)(=O)N3CCCCC3)c2)CC1` [Example 100-3, N-(3-(piperidin-1-ylsulfonyl)phenyl)-2-(4-propylpiperidin-1-yl)nicotinamide], the IC50 stood at 656 nM.
With `O=C(Nc1cccc(S(=O)(=O)N2CCCCC2)c1)c1cccnc1N1CCC2(CCC2)CC1` [Example 100-4, N-(3-(piperidin-1-ylsulfonyl)phenyl)-2-(7-azaspiro[3.5]nonan-7-yl)nicotinamide] the figure was 217 nM; with `O=C(Nc1cccc(S(=O)(=O)N2CCC(F)CC2)c1)c1cccnc1N1CCC2(CCC2)CC1` [Example 100-5, N-(3-((4-fluoropiperidin-1-yl)sulfonyl)phenyl)-2-(7-azaspiro[3.5]nonan-7-yl)nicotinamide], 160 nM; with `O=C(Nc1cccc(S(=O)(=O)N2CCC(F)(F)CC2)c1)c1cccnc1N1CCC2(CCC2)CC1` [Example 100-6, N-(3-((4,4-difluoropiperidin-1-yl)sulfonyl)phenyl)-2-(7-azaspiro[3.5]nonan-7-yl)nicotinamide], 90 nM.
With `O=C(Nc1cccc(S(=O)(=O)N2CCC(F)(F)CC2)c1)c1cccnc1N1CCC2(CC1)CC2` [Example 100-7, N-(3-((4,4-difluoropiperidin-1-yl)sulfonyl)phenyl)-2-(6-azaspiro[2.5]octan-6-yl)nicotinamide] the figure was 104 nM; with `O=C(Nc1cccc(S(=O)(=O)N2CCC(F)CC2)c1)c1cccnc1N1CCC2(CC1)CC2` [Example 100-8, N-(3-((4-fluoropiperidin-1-yl)sulfonyl)phenyl)-2-(6-azaspiro[2.5]octan-6-yl)nicotinamide], 259 nM; with `Cc1ccc(NC(=O)c2cccnc2N2CCC(C)(C)CC2)cc1S(=O)(=O)N1CCCCC1` [Example 100-9, 2-(4,4-dimethylpiperidin-1-yl)-N-(4-methyl-3-(piperidin-1-ylsulfonyl)phenyl)nicotinamide], 282 nM.
With `Cc1ccc(NC(=O)c2cccnc2N2CCC3(CC2)CC3)cc1S(=O)(=O)N1CCCCC1` [Example 100-10, N-(4-methyl-3-(piperidin-1-ylsulfonyl)phenyl)-2-(6-azaspiro[2.5]octan-6-yl)nicotinamide] the figure was 211 nM; with `CC(C)NS(=O)(=O)c1cccc(NC(=O)c2cccnc2N2CCC3(CC2)CC3)c1` [Example 100-11, N-(3-(N-isopropylsulfamoyl)phenyl)-2-(6-azaspiro[2.5]octan-6-yl)nicotinamide], 934 nM; with `CC(C)(C)NS(=O)(=O)c1cccc(NC(=O)c2cccnc2N2CCC3(CC2)CC3)c1` [Example 100-12, N-(3-(N-(tert-butyl)sulfamoyl)phenyl)-2-(6-azaspiro[2.5]octan-6-yl)nicotinamide], 175 nM.
With `Cc1ccc(NC(=O)c2cccnc2N2CCC3(CC2)CC3)cc1S(=O)(=O)NC1CC1` [Example 100-13, N-(3-(N-cyclopropylsulfamoyl)-4-methylphenyl)-2-(6-azaspiro[2.5]octan-6-yl)nicotinamide], the IC50 is 712 nM.
With `O=C(Nc1cccc(S(=O)(=O)C2CCCC2)c1)c1cccnc1N1CCC2(CC1)CC2` [Example 100-14, N-(3-(cyclopentylsulfonyl)phenyl)-2-(6-azaspiro[2.5]octan-6-yl)nicotinamide] the figure was 287 nM; with `CCC1CCN(c2ncccc2C(=O)Nc2cccc(S(=O)(=O)C3CCCC3)c2)CC1` [Example 100-15, N-(3-(cyclopentylsulfonyl)phenyl)-2-(4-ethylpiperidin-1-yl)nicotinamide], 850 nM.
With `CCC1(C)CCN(c2ncccc2C(=O)Nc2cccc(S(=O)(=O)C3CCCC3)c2)CC1` [Example 100-16, N-(3-(cyclopentylsulfonyl)phenyl)-2-(4-ethyl-4-methylpiperidin-1-yl)nicotinamide] the figure was 1010 nM; with `CCCC1CCN(c2ncccc2C(=O)Nc2cccc(S(=O)(=O)C3CCCC3)c2)CC1` [Example 100-17, N-(3-(cyclopentylsulfonyl)phenyl)-2-(4-propylpiperidin-1-yl)nicotinamide], 778 nM.
With `O=C(Nc1cccc(S(=O)(=O)C2CCCC2)c1)c1cccnc1N1CCC2(CCC2)CC1` [Example 100-18, N-(3-(cyclopentylsulfonyl)phenyl)-2-(7-azaspiro[3.5]nonan-7-yl)nicotinamide] the figure was 134 nM.
For the compound `O=C(Nc1cccc(S(=O)(=O)C2CCCC2)c1)c1cccnc1N1CCC2(CC1)CC(F)(F)C2` [Example 100-19, N-(3-(cyclopentylsulfonyl)phenyl)-2-(2,2-difluoro-7-azaspiro[3.5]nonan-7-yl)nicotinamide], the IC50 worked out at 734 nM.
`Cc1ccc(NC(=O)c2cccnc2N2CCC3(CC2)CC3)cc1S(=O)(=O)C1CCCC1` [Example 100-20, N-(3-(cyclopentylsulfonyl)-4-methylphenyl)-2-(6-azaspiro[2.5]octan-6-yl)nicotinamide]: the IC50 is 279 nM.
In the case of `O=C(Nc1cccc(S(=O)(=O)C2CCCC2)c1F)c1cccnc1N1CCC2(CC1)CC2` [Example 100-21, N-(3-(cyclopentylsulfonyl)-2-fluorophenyl)-2-(6-azaspiro[2.5]octan-6-yl)nicotinamide] it was 760 nM; in that of `O=C(Nc1cccc(S(=O)(=O)CC2CC2)c1)c1cccnc1N1CCC2(CC1)CC2` [Example 100-22, N-(3-((cyclopropylmethyl)sulfonyl)phenyl)-2-(6-azaspiro[2.5]octan-6-yl)nicotinamide], 910 nM; in that of `O=C(Nc1cccc(S(=O)(=O)C2CCCCC2)c1)c1cccnc1N1CCC2(CC1)CC2` [Example 100-23, N-(3-(cyclohexylsulfonyl)phenyl)-2-(6-azaspiro[2.5]octan-6-yl)nicotinamide], 610 nM.
Take `O=C(Nc1cccc(S(=O)(=O)C2CCC2)c1)c1cccnc1N1CCC2(CC1)CC2` [Example 100-24, N-(3-(cyclobutylsulfonyl)phenyl)-2-(6-azaspiro[2.5]octan-6-yl)nicotinamide]: the IC50 was 923 nM.
With `O=C(Nc1cccc(S(=O)(=O)NC2CC2)c1)c1cccnc1N1CCC2(CC1)CC2` [Example 101, N-(3-(N-cyclopropylsulfamoyl)phenyl)-2-(6-azaspiro[2.5]octan-6-yl)nicotinamide] the figure was 517 nM; with `O=C(Nc1cccc(S(=O)(=O)NC2CCC2)c1)c1cccnc1N1CCC2(CC1)CC2` [Example 101-1, N-(3-(N-cyclobutylsulfamoyl)phenyl)-2-(6-azaspiro[2.5]octan-6-yl)nicotinamide], 323 nM.
With `CN(C1CCC1)S(=O)(=O)c1cccc(NC(=O)c2cccnc2N2CCC3(CC2)CC3)c1` [Example 101-2, N-(3-(N-cyclobutyl-N-methylsulfamoyl)phenyl)-2-(6-azaspiro[2.5]octan-6-yl)nicotinamide] the figure was 610 nM; with `CC1(NS(=O)(=O)c2cccc(NC(=O)c3cccnc3N3CCC4(CC3)CC4)c2)CCC1` [Example 101-3, N-(3-(N-(1-methylcyclobutyl)sulfamoyl)phenyl)-2-(6-azaspiro[2.5]octan-6-yl)nicotinamide], 189 nM.
In the case of `O=C(Nc1cccc(S(=O)(=O)NC2CCCCC2)c1)c1cccnc1N1CCC2(CC1)CC2` [Example 101-4, N-(3-(N-cyclohexylsulfamoyl)phenyl)-2-(6-azaspiro[2.5]octan-6-yl)nicotinamide] it was 918 nM; in that of `O=C(Nc1cccc(S(=O)(=O)N2CC(F)(F)C2)c1)c1cccnc1N1CCC2(CC1)CC2` [Example 101-5, N-(3-((3,3-difluoroazetidin-1-yl)sulfonyl)phenyl)-2-(6-azaspiro[2.5]octan-6-yl)nicotinamide], 401 nM.
